Test results: patent publication US8686003B2, “Tissue non-specific alkaline phosphatase inhibitors and uses thereof for treating vascular calcification” (Sanford-Burnham Medical Research Institute, priority 2007, dated 2014)
Entries after “also recorded” stand apart in the source; their conditions may differ. Where two headings read alike, the source gives them in different places.

How the values were obtained:
human TNAP = biological target: T1, human TNAP (Homo sapiens, UniProt P05186); experiment: Enzyme kinetic experiments, Ki and mechanism of TNAP inhibition; type: biochemical; settings: for Ki: pNPP substrate
T1 construct: made in house; host or cells: COS-1 cells, transient expression; dialyzed serum-free conditioned medium
T1 sequence (P05186 18-502 limits assumed): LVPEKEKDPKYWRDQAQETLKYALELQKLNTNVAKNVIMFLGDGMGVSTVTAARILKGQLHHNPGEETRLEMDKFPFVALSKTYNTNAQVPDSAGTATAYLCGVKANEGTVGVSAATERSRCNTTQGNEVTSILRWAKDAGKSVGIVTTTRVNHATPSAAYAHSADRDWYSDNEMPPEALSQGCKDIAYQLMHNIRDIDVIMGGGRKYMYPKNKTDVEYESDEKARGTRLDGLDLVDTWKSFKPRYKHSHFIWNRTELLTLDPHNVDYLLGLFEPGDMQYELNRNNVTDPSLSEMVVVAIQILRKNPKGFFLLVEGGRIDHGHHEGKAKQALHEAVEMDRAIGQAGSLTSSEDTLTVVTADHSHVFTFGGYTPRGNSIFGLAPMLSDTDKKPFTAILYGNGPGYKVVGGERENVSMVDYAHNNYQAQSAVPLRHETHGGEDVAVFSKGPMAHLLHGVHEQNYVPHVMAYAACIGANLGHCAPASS
Description: Expression plasmids containing a secreted epitope-tagged TNAP, PLAP and IAP were transfected into COS-1 cells for transient expression using a standard electroporation method. Medium was replaced to Opti-MEM 24 hours later, and the serum free media containing secreted proteins were collected 60 hours after electroporation. Conditioned medium was dialyzed against TBS containing 1 mM MgCl2 ad 20 μM ZnCl2 (to remove phosphate) and filtrated with a 2 μm cellulose acetate filter.
[…] TNAP, PLAP and IAP activities were adjusted to an approximate ΔA405 nm, equivalent to 1, measured after 30 min. Residual AP activity in the presence of inhibitors was expressed as percentage of the control activity. To investigate the mechanism of inhibition, double reciprocal plots of enzyme activity (expressed as mA405 nm min^−1) vs. substrate concentration were constructed, in the presence of various concentrations of added inhibitors (0-30 μM). The y-axis intercepts of the 1/v vs. 1/[S] plots, were then plotted vs. [I] to graphically extract Ki values as the x-intercept in this plot. […] Inhibitors were further tested and sorted based on their kinetic properties at pH 7.4 using PPi, the relevant natural substrate of TNAP. […] Amounts of released phosphate were measured using the Biomol Green Reagent (Biomol Research Laboratories, Inc., Plymouth Meeting, Pa.).

[1] = system: endogenous pyrophosphatase activity in aortic rat rings; experiment: PPi hydrolysis by whole aortas ex vivo; settings: 30 μM; for PPi hydrolysis / % Inhibition: aortic rat rings ex vivo; for % Inhibition: inhibition of PPi hydrolysis
Description: Rats were sacrificed and aortas perfused with Hanks salt solution to remove blood. The aortas were then removed and, after the adventitia was dissected away, were cut into rings approximately 2 mm in length. Four rings were placed in 1 ml of DMEM without serum containing the compounds to be tested. After 90 min at 37° C., sodium PPi (final concentration 1 μM) and [^32P]Pi (final concentration 1 μCurie/ml) were added and 6 samples were removed over 4 hours. Pi was separated from PPi by adding 800 μl of 0.028 M ammonium molybdate in 0.75 M H2SO4 to the samples and extracting with 1600 μl of isobutanol and petroleum ether (4:1). ^32P was counted in the organic phase by Cerenkov radiation. Hydrolysis of PPi was linear over 4 hours and the rate was determined by linear regression.
Furthermore, to measure the degree of pyrophosphatase inhibition by the new TNAP inhibitors, an ex vivo organ culture system in whole aortas was used. For this analysis, rat rather than mouse aortas were selected, as they are larger and easier to dissect.

Enpp1−/− VSMCs = experiment: In vitro calcification (mineralization) of VSMC cultures; type: cell-based, mouse; settings: Enpp1−/− VSMC culture
Description: Vascular SMCs were isolated from explants using a collagenase digestion method and the smooth muscle phenotype was confirmed by RT-PCR analysis for smooth muscle α-actin. One mouse aorta provided on average, 5×10^5 cells. These cells were cultured (in triplicate) at a density of 3×10^4 cells/cm^2 using α-MEM supplemented with β-glycerophosphate (10 mM) and 50 μg/ml ascorbic acid for 3 weeks. To quantify calcium deposited in these cultures, either the o-cresolphthalein complexone method^(31) or the standard Alizarin Red method was used.

[2] = pH 7.5, 1 M Tris-HCl buffer, read-out: Ki (μM) @ pH 7.5
[3] = pH 9.8, 1 M DEA-HCl buffer, read-out: Ki (μM) @ pH 9.8

Row | Ki (human TNAP; [2]) [µM] | Ki (human TNAP; [3]) [µM] | potency at pH 7.5 compared with pH 9.8 (human TNAP) | potency relative to levamisole (human TNAP; Ki at physiological pH) | SMILES | PPi hydrolysis [1] [nmol/g/min] | % Inhibition [1] [%] | effect of competitive inhibitor Pi on potency (human TNAP; pH 7.4, 0.1 mM pNPP, Na2HPO4 0-10 mM) | effect of PPi on degree of inhibition (human TNAP; pH 7.4, 0.1 mM pNPP, pyrophosphate 0-40 mM) | inhibition of mineralization (Enpp1−/− VSMCs) | suppression of endogenous pyrophosphatase activity (ranking) ([1]; rat whole aortas ex vivo)
1 | 33 ± 5.8 | 5.6 ± 0.7 | – | – | O=C(CSc1nnc[nH]1)NCCOc1ccccc1 | 0.249 ± 0.046 | 22.2 | – | – | – | –
2 | 6.4 ± 1.6 | 5.6 ± 1.6 | – | – | Cn1cnnc1SC(C(=O)c1ccccc1)c1ccccc1 (centres unmarked) | 0.269 ± 0.032 | 15.9 | – | – | – | –
3 | – | – | – | – | c1ccc([C@H]2CN3CCSC3=N2)cc1 [levamisole, (6S)-6-phenyl-2,3,5,6-tetrahydro-imidazo[2,1-b][1,3]thiazole, reference compound] | 0.252 ± 0.047 | 21.2 | – | – | – | –
4 | 2.8 ± 0.4 | 6.5 ± 1.4 | more potent at pH 7.5 than at pH 9.8 | about 10 fold | Cn1ccnc1Sc1nc(Nc2ccccc2)nc(Nc2ccccc2)n1 [compound 5804079] | 0.192 ± 0.041 | 39.9 | does not affect the potency; also recorded: not affected by the presence of the competitive inhibitor Pi | does not affect the degree of inhibition; also recorded: not affected by high concentrations of PPi | most inhibitory | most effective
